US9540343B2 (Gilead Sciences, Inc., priority 2011, dated 2017)

Assays:
in vitro = assay: in vitro
Method in brief: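 Cytoprotection read-out: CellTiter-Glo chemiluminescence after 5 days at 37 °C of HIV-IIIb-infected MT-4 cells (m.o.i. 0.003) with compound in 10-point 3-fold dilutions, quadruplicate, 10% FBS. Cytotoxicity (CC50) measured identically without virus.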

HIV-IIIb = assay: Test A: Antiviral assay in MT4 cells; format: cell-based, HIV-1; settings: Human immunodeficiency virus 1, IIIB, MT4, 120 h, read-out: % inhibition at 2 μM, percent inhibition of virus-induced cell killing, from dose response curve at 2 uM drug; MT-4 cells infected with HIV-IIIb, 5 days, CellTiter-Glo
[1] = human, uninfected MT-4 cells, CC50 (nM), same protocol as Test A, CellTiter-Glo

| Structure (SMILES) | CC50 at 5 days (in vitro; [1]) [nM] | inhibition at 2 µM (HIV-IIIb) [%] | CC50 at 5 days (in vitro; human, CC50 (nM), uninfected MT-4 cells, same protocol as Test A, CellTiter-Glo) [nM] |
| --- | --- | --- | --- |
| NC(=O)c1cc(-c2cccnc2[C@H](Cc2cc(F)cc(F)c2)NC(=O)CN2CC(=O)Nc3ccccc32)ccc1F [Example 269, (S)-5-(2-(2-(3,5-difluorophenyl)-1-(2-(3-oxo-3,4-dihydroquinoxalin-1(2H)-yl)acetamido)ethyl)pyridin-3-yl)-2-fluorobenzamide] | > 53200 | 8 | – |
| CC1(C)CC(=O)c2c(C(F)(F)F)nn(CC(=O)N[C@@H](Cc3cc(F)cc(F)c3)c3ncccc3-c3ccc(F)c(C(N)=O)c3)c2C1 [Example 369, (S)-5-(2-(2-(3,5-difluorophenyl)-1-(2-(6,6-dimethyl-4-oxo-3-(trifluoromethyl)-4,5,6,7-tetrahydro-1H-indazol-1-yl)acetamido)ethyl)pyridin-3-yl)-2-fluorobenzamide] | > 53000 | 5 | – |
| Cc1ccccc1-c1cccnc1[C@H](Cc1cccc(F)c1)NC(=O)Cc1c[nH]c2ccc(O)cc12 [Example 24, (S)—N-(2-(3-fluorophenyl)-1-(3-o-tolylpyridin-2-yl)ethyl)-2-(5-hydroxy-1H-indol-3-yl)acetamide] | 24800 | 39 | – |
| O=C(Cc1c[nH]c2ccc(O)cc12)N[C@@H](Cc1cc(F)cc(F)c1)c1ncccc1-c1ccc(F)cc1 [Example 113, (S)—N-(2-(3,5-difluorophenyl)-1-(3-(4-fluorophenyl)pyridin-2-yl)ethyl)-2-(5-hydroxy-1H-indol-3-yl)acetamide] | 22300 | 78 | – |
| O=C(Cn1nc(C(F)(F)F)c2c1COCC2)N[C@@H](Cc1cc(F)cc(F)c1)c1ncccc1-c1ccc(Cl)cc1 [Example 121, (S)—N-(1-(3-(4-chlorophenyl)pyridin-2-yl)-2-(3,5-difluorophenyl)ethyl)-2-(3-(trifluoromethyl)-4,5-dihydropyrano[3,4-c]pyrazol-1(7H)-yl)acetamide] | 9100 | 68 | – |
| O=C(Cn1nc(C(F)(F)F)c2c1CCCC2)N[C@@H](Cc1cc(F)cc(F)c1)c1ncccc1-c1cccc(F)c1 [Example 117, (S)—N-(2-(3,5-difluorophenyl)-1-(3-(3-fluorophenyl)pyridin-2-yl)ethyl)-2-(3-(trifluoromethyl)-4,5,6,7-tetrahydro-1H-indazol-1-yl)acetamide] | 8260 | 89 | – |
| CC1Cc2c(C(F)(F)F)nn(CC(=O)N[C@@H](Cc3cc(F)cc(F)c3)c3ncccc3-c3ccc(F)c(C(N)=O)c3)c2C1 (stereo partly drawn) [Example 234, 5-(2-((1S)-2-(3,5-difluorophenyl)-1-(2-(5-methyl-3-(trifluoromethyl)-5,6-dihydrocyclopenta[c]pyrazol-1(4H)-yl)acetamido)ethyl)pyridin-3-yl)-2-fluorobenzamide] | 15900 | 73 | – |
| O=C(Cn1nc(C(F)(F)F)c2c1CC1CC21)N[C@@H](Cc1cc(F)cc(F)c1)c1ncccc1-c1cnc2[nH]ccc2c1 (stereo partly drawn) [Example 595, N—((S)-1-(3-(1H-pyrrolo[2,3-b]pyridin-5-yl)pyridin-2-yl)-2-(3,5-difluorophenyl)ethyl)-2-(3-(trifluoromethyl)-3b,4,4a,5-tetrahydro-1H-cyclopropa[3,4]cyclopenta[1,2-c]pyrazol-1-yl)acetamide] | 12700 | 99 | – |
| NC(=O)c1cc(-c2cccnc2[C@H](Cc2cc(F)cc(F)c2)NC(=O)Cn2nc(C(F)(F)F)c3c2CCC=C3)ccc1F [Example 339B, (S)-5-(2-(2-(3,5-difluorophenyl)-1-(2-(3-(trifluoromethyl)-6,7-dihydro-1H-indazol-1-yl)acetamido)ethyl)pyridin-3-yl)-2-fluorobenzamide] | 19400 | 53 | – |
| NC(=O)c1cc(-c2cccnc2[C@H](Cc2cc(F)cc(F)c2)NC(=O)Cn2ccc3ccc(C(F)(F)F)cc32)ccc1F [Example 591, (S)-5-(2-(2-(3,5-difluorophenyl)-1-(2-(6-(trifluoromethyl)-1H-indol-1-yl)acetamido)ethyl)pyridin-3-yl)-2-fluorobenzamide] | 14200 | 15 | – |
| NC(=O)c1cc(-c2cccnc2[C@H](Cc2cc(F)cc(F)c2)NC(=O)C2CCCN2Cc2ccccc2)ccc1F (stereo partly drawn) [Example 166, 1-benzyl-N—((S)-1-(3-(3-carbamoyl-4-fluorophenyl)pyridin-2-yl)-2-(3,5-difluorophenyl)ethyl)pyrrolidine-2-carboxamide] | 6360 | 0 | – |
| NC(=O)c1cc(-c2cccnc2[C@H](Cc2cc(F)cc(F)c2)NC(=O)Cn2nc3c(c2C(F)(F)F)C(=O)C2CC32)ccc1F (stereo partly drawn) [Example 346D, 5-(2-((1S)-2-(3,5-difluorophenyl)-1-(2-(4-oxo-3-(trifluoromethyl)-4,4-a,5,5a-tetrahydro-2H-cyclopropa[4,5]cyclopenta[1,2-c]pyrazol-2-yl)acetamido)ethyl)pyridin-3-yl)-2-fluorobenzamide] | 39000 | 1 | – |
| CN(C)S(=O)(=O)c1ccc(-c2cccnc2[C@H](Cc2cc(F)cc(F)c2)NC(=O)Cn2nc(C(F)F)c3c2C(F)(F)C2CC32)cc1 (stereo partly drawn) [Example 119, (S)—N-(1-(3-(4-(N,N-dimethylsulfamoyl)phenyl)-pyridin-2-yl)-2-(3,5-difluorophenyl)ethyl)-2-(3-(difluoromethyl)-5,6-dihydro-4,5-(methano)-6,6-difluoro-cyclopenta[c]pyrazol-1(4H)-yl)acetamide] | > 53200 | 48 | – |
| NC(=O)c1cc(-c2cccnc2[C@H](Cc2cc(F)cc(F)c2)NC(=O)Cn2nc(C(N)=O)c3c2CC2CC32)ccc1F (stereo partly drawn) [Example 209, 1-(2-(((S)-1-(3-(3-carbamoyl-4-fluorophenyl)pyridin-2-yl)-2-(3,5-difluorophenyl)ethyl)amino)-2-oxoethyl)-3b,4,4a,5-tetrahydro-1H-cyclopropa[3,4]cyclopenta[1,2-c]pyrazole-3-carboxamide] | > 53200 | 51 | – |
| Cc1cc2ncn(CC(=O)N[C@@H](Cc3cc(F)cc(F)c3)c3ncccc3-c3ccc(F)c(C(N)=O)c3)c2cc1C [Example 564, (S)-5-(2-(2-(3,5-difluorophenyl)-1-(2-(5,6-dimethyl-1H-benzo[d]imidazol-1-yl)acetamido)ethyl)pyridin-3-yl)-2-fluorobenzamide] | 10300 | 100 | – |
| NC(=O)c1cc(-c2cccnc2[C@H](Cc2cc(F)cc(F)c2)NC(=O)Cn2nc(C(F)(F)F)c3c2COC3)ccc1F [Example 258, (S)-5-(2-(2-(3,5-difluorophenyl)-1-(2-(3-(trifluoromethyl)-4,6-dihydro-1H-furo[3,4-c]pyrazol-1-yl)acetamido)ethyl)pyridin-3-yl)-2-fluorobenzamide] | > 53200 | 8 | – |
| O=C(Cn1nc(C(F)F)c2c1C(F)(F)C1CC21)N[C@@H](Cc1cc(F)cc(F)c1)c1ncccc1-c1ccc(OC(F)F)cc1 (stereo partly drawn) [Example 231, N—((S)-1-(3-(4-(difluoromethoxy)phenyl)pyridin-2-yl)-2-(3,5-difluorophenyl)ethyl)-2-(3-(difluoromethyl)-5,5-difluoro-3b,4,4a,5-tetrahydro-1H-cyclopropa[3,4]cyclopenta[1,2-c]pyrazol-1-yl)acetamide] | 43200 | 79 | – |
| NC(=O)c1cccc(-c2cccnc2[C@H](Cc2cc(F)cc(F)c2)NC(=O)Cc2c[nH]c3cc(F)ccc23)c1 [Example 86, (S)-3-(2-(2-(3,5-difluorophenyl)-1-(2-(6-fluoro-1H-indol-3-yl)acetamido)ethyl)pyridin-3-yl)benzamide] | 21400 | 97 | – |
| CC(C)(C)OC(=O)N1CCOC[C@@H]1C(=O)N[C@@H](Cc1cc(F)cc(F)c1)c1ncccc1-c1ccc(F)c(C(N)=O)c1 [Example 133, (R)-tert-butyl 3-((S)-1-(3-(3-carbamoyl-4-fluorophenyl)pyridin-2-yl)-2-(3,5-difluorophenyl)ethylcarbamoyl)morpholine-4-carboxylate] | > 53000 | 1 | – |
| NC(=O)c1cc(-c2cccnc2[C@H](Cc2cc(F)cc(F)c2)NC(=O)Cn2nc(C(F)(F)F)c3c2CCC2(C3)OCCO2)ccc1F [Example 468D, (S)-5-(2-(2-(3,5-difluorophenyl)-1-(2-(3′-(trifluoromethyl)-6′,7′-dihydrospiro[[1,3]dioxolane-2,5′-indazole]-1′(4′H)-yl)acetamido)ethyl)pyridin-3-yl)-2-fluorobenzamide] | > 53000 | 14 | – |
| NC(=O)c1cc(-c2cccnc2[C@H](Cc2cc(F)cc(F)c2)NC(=O)Cn2nc(C(F)F)c3c2C(F)(F)CCC3)ccc1F [Example 380, (S)-5-(2-(1-(2-(3-(difluoromethyl)-7,7-difluoro-4,5,6,7-tetrahydro-1H-indazol-1-yl)acetamido)-2-(3,5-difluorophenyl)ethyl)pyridin-3-yl)-2-fluorobenzamide] | 18300 | 97 | – |
| CC(=O)c1c(C)n(CC(=O)N[C@@H](Cc2cc(F)cc(F)c2)c2ncccc2-c2ccc(Cl)cc2)c2ccccc12 [Example 486, (S)-2-(3-acetyl-2-methyl-1H-indol-1-yl)-N-(1-(3-(4-chlorophenyl)pyridin-2-yl)-2-(3,5-difluorophenyl)ethyl)acetamide] | – | 76 | 7080 |
| NS(=O)(=O)c1cc(-c2cccnc2[C@H](Cc2cc(F)cc(F)c2)NC(=O)Cc2c[nH]c3ccc(F)cc23)ccc1F [Example 580F, (S)—N-(2-(3,5-difluorophenyl)-1-(3-(4-fluoro-3-sulfamoylphenyl)pyridin-2-yl)ethyl)-2-(5-fluoro-1H-indol-3-yl)acetamide] | 32600 | 95 | – |
